Data taken from ChEMBL document CHEMBL1201862, “PubChem BioAssay data set” (2004).
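Grown in 96-well plates, cells were treated for 48 hours with each compound at five concentrations. Insufficient inhibition: endpoint recorded as highest concentration tested. The concentration for 50% growth inhibition is given as GI50.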 Activity calls are given as the source filed them. Cut-off read from the data, not from the text of the source: active = GI50 up to about 1.1 µM and inactive = higher.

What was measured:
Test in all cases: NCI anticancer screen, dose series, 48 h
[1] = system: HT-29
[2] = system: UACC-62
[3] = system: KM12
[4] = system: OVCAR-3
[5] = system: CCRF-CEM
[6] = system: A549
[7] = system: RPMI-8226
[8] = system: PC-3
[9] = system: MDA-MB-231
[10] = system: SK-OV-3
[11] = system: HOP-62
[12] = system: SNB-19
[13] = system: SK-MEL-2
[14] = system: SF-295
[15] = system: EKVX
[16] = system: SF-268
[17] = system: COLO 205
[18] = system: 786-0
[19] = system: MDA-MB-435
[20] = system: HCT-116
[21] = system: OVCAR-8
[22] = system: SN12C
[23] = system: DU-145
[24] = system: Hs-578T
[25] = system: T47D
[26] = system: TK-10
[27] = system: HCT-15
[28] = system: K562
[29] = system: NCI/ADR-RES
[30] = system: U-251
[31] = system: OVCAR-5
[32] = system: SW-620
[33] = system: UACC-257
[34] = system: CAKI-1
[35] = system: SR
[36] = system: M14
[37] = system: LOX IMVI
[38] = system: UO-31
[39] = system: MDA-N
[40] = system: IGROV-1
[41] = system: SK-MEL-28
[42] = system: MCF7
[43] = system: HL-60
[44] = system: SK-MEL-5
[45] = system: HOP-92
[46] = system: NCI-H226
[47] = system: MOLT-4
[48] = system: ACHN
[49] = system: NCI-H23
[50] = system: NCI-H460
[51] = system: BT-549
[52] = system: A498
[53] = system: SF-539
[54] = system: SNB-75

In the case of COc1ccc(/C=N\N2CC(=O)N3C4C=CC(CC4)N3C2=O)cc1 (centres undefined), the GI50 [1] is reported as > 100 µM (inactive), the GI50 [2] is reported as 74.8 µM (inactive) and the GI50 [3] is reported as > 100 µM (inactive). For the same compound, the GI50 [4] was > 100 µM (inactive), the GI50 [5] was > 100 µM (inactive) and the GI50 [6] was > 100 µM (inactive). For the same compound, the GI50 [7] was > 100 µM (inactive), the GI50 [8] was > 100 µM (inactive) and the GI50 [9] was > 100 µM (inactive). The GI50 [10] was > 100 µM (inactive), the GI50 [11] was 46.7 µM (inactive) and the GI50 [12] was > 100 µM (inactive). The GI50 [13] was > 100 µM (inactive), the GI50 [14] was > 100 µM (inactive) and the GI50 [15] was > 100 µM (inactive). For the same compound, the GI50 [16] was 88.7 µM (inactive), the GI50 [17] was > 100 µM (inactive) and the GI50 [18] was > 100 µM (inactive). For the same compound, the GI50 [19] was > 100 µM (inactive), the GI50 [20] was > 100 µM (inactive) and the GI50 [21] was 58.1 µM (inactive). For the same compound, the GI50 [22] was > 100 µM (inactive), the GI50 [23] was > 100 µM (inactive) and the GI50 [24] was 46.3 µM (inactive). The GI50 [25] was 85.7 µM (inactive), the GI50 [26] was > 100 µM (inactive) and the GI50 [27] was > 100 µM. For the same compound, the GI50 [28] was > 100 µM (inactive), the GI50 [29] was 81.8 µM (inactive) and the GI50 [30] was > 100 µM (inactive). For the same compound, the GI50 [31] was > 100 µM (inactive), the GI50 [32] was > 100 µM (inactive) and the GI50 [33] was > 100 µM (inactive). The GI50 [34] was > 100 µM (inactive), the GI50 [35] was > 100 µM (inactive) and the GI50 [36] was > 100 µM (inactive). For the same compound, the GI50 [37] was > 100 µM (inactive), the GI50 [38] was > 100 µM (inactive) and the GI50 [39] was > 100 µM (inactive). The GI50 [40] was > 100 µM (inactive), the GI50 [41] was > 100 µM (inactive) and the GI50 [42] was > 100 µM (inactive). For the same compound, the GI50 [43] was 53.1 µM (inactive), the GI50 [44] was 54.7 µM (inactive) and the GI50 [45] was > 100 µM (inactive). For the same compound, the GI50 [46] was > 100 µM (inactive), the GI50 [47] was > 100 µM (inactive) and the GI50 [48] was > 100 µM (inactive). For the same compound, the GI50 [49] was > 100 µM (inactive), the GI50 [50] was > 100 µM (inactive) and the GI50 [51] was > 100 µM (inactive). For the same compound, the GI50 [52] was > 100 µM (inactive), the GI50 [53] was > 100 µM (inactive) and the GI50 [54] was 22.2 µM (inactive).
